Experimental data published in patent US10981864B2, “Crystalline modifications of N-(4,5-bismethanesulfonyl-2-methylbenzoyl)guanidine hydrochloride and N-(4,5-bismethanesulfonyl-2-methylbenzoyl)guanidine salts” (MERCK PATENT GMBH, priority 2016, dated 2021).
Where “and” joins values, the source holds several entries; their conditions need not be identical. Equal values may be shown once. Where a name gives a salt, the structure may show the parent alone.

Experiments:
Type in all cases: physicochemical
[1] = Mini-dissolution in FeSSIF medium (pH 5.0), dissolved quantity by HPLC; details: for Dissolution levels in FeSSIF pH 5.0: FeSSIF pH 5.0, 37° C.; for Dissolution behavior compared to prior-art form HCl-H1: biorelevant media, Fed-state conditions (FeSSIF, pH 5.0)
Protocol: Approximately 10-12 mg of N-(4,5-bis-methanesulfonyl-2-methyl-benzoyl)guanidine form HCl-H1 (HCl salt hydrate form, prior-art), HCl salt anhydrous forms (forms HCl-A1, HCl-A2, HCl-A3), and novel salt forms [phosphate salt (form Phosphate-NF1), maleate salt (form Maleate-NF2), oxalate salt (form Oxalate-NF1), citrate salt (form citrate-NF1), sulfate salt (form Sulfate-NF3), succinate salt (form Succinate-NF1), malonate salt (form Malonate-NF1), besylate salt (form Besylate-NF1), p-tosylate salt (form Tosylate-NF1), malate salt (form Malate-NF1), fumarate salt (form Fumarate-NF1), tartrate salt (form Tartrate-NF1)] are weighed into 4 mL glass vials, and dispersed in 4 mL FeSSIF medium (pH 5.0, Acetate buffer capacity increased by factor 4 to ensure stable pH conditions over course of dissolution experiments).
All dispersions are agitated at 37° C. for up to 2 hours. At defined time intervals (5 min, 15 min, 60 min, 120 min), 0.4 mL sample aliquots of homogeneous dispersions are withdrawn by a syringe, and filtrated via syringe filter adapters (PTFE, 0.2 μm). Clear filtrates are diluted (1:20) with respective Acetate blank buffer, and diluted samples analyzed by HPLC for dissolved quantities of N-(4,5-bis-methanesulfonyl-2-methyl-benzoyl)-guanidine.

[2] = Water Vapour Sorption isotherm (DVS), hygroscopicity acc. to Ph. Eur.; details: for Water uptake levels (Water Vapour Sorption): 25° C.; for Tendency to undergo hydrate formation: upon exposure to elevated RH levels
Protocol: As used herein, unless stated otherwise, Water Vapour Sorption isotherm measurements are carried out on a DVS-1 or a DVS-Intrinsic system from SMS.
A second endothermic event occurs at >180° C., which is due to melting of the dehydrated form. This is followed by immediate re-crystallisation (exothermic event), and subsequent melting of the re-crystallized phase at >240° C. […] DSC scan of form HCl-H1 was acquired on a Mettler-Toledo DSC 821 with a heating rate of 5 K/min, using nitrogen purge gas at 50 mL/min. […] Form HCl-H1 can be classified as non-hygroscopic acc. to Ph. Eur. criteria (section 5.11.). […] Water Vapour Sorption isotherm was acquired on a DVS-1 system from SMS. • Dissolution level of form HCl-H1 in Fed-State Simulated Intestinal Fluid [FeSSIF, pH 5.0] at 37° C. was determined to be approx. 1.50 mg/mL (after 15 min), approx. 4.16 mg/mL (after 60 min), and approx. 4.54 mg/mL (after 120 min), respectively (see example 17).

[3] = Thermal behaviour (DSC/TGA), thermal stability; details: for Thermal stability (mp/dec): DSC/TGA 5 K/min
Protocol: As used herein, unless stated otherwise, the DSC measurements are carried out using a Mettler-Toledo DSC 821 with a heating rate of 5 K/min, using nitrogen purge gas at 50 mL/min.
As used herein, unless stated otherwise, the TGA measurements are carried out using a Mettler-Toledo TGA 851 with a heating rate of 5 K/min, using nitrogen purge gas at 50 mL/min.

[4] = relative humidity range 0-80% rh
[5] = relative humidity range 0-90% rh

Compound | Dissolution levels in FeSSIF pH 5.0 ([1]; 5 min) [mg/mL] | Dissolution levels in FeSSIF pH 5.0 ([1]; 15 min) | Dissolution levels in FeSSIF pH 5.0 ([1]; 60 min) | Dissolution levels in FeSSIF pH 5.0 ([1]; 120 min) | Dissolution behavior compared to prior-art form HCl-H1 [1] | Hygroscopicity classification acc. to Ph. Eur. criteria (section 5.11.) [2] | Water uptake levels (Water Vapour Sorption) [2, 4] [wt %] | Thermally stable up to [3] [°C] | Thermal stability (mp/dec) [3] [°C] | Water uptake levels (Water Vapour Sorption) [2, 5] [wt %] | Tendency to undergo hydrate formation [2] | Water uptake levels (Water Vapour Sorption) ([2]; relative humidity range 10-90% rh) | Water uptake levels (Water Vapour Sorption) ([2]; entire relative humidity range 0-98% rh) [wt %]
Cc1cc(S(C)(=O)=O)c(S(C)(=O)=O)cc1C(=O)NC(=N)N [Tosylate-NF1, N-(4,5-bis-methanesulfonyl-2-methyl-benzoyl)-guanidine] | 1.961 | 4.85±0.02 mg/mL and 4.850 mg/mL | 5.28±0.02 mg/mL and 5.285 mg/mL | 2.86±0.02 mg/mL and 2.859 mg/mL | improved dissolution behavior | slightly hygroscopic | 1.0 | ~180 | – | – | – | – | –
Cc1cc(S(C)(=O)=O)c(S(C)(=O)=O)cc1C(=O)NC(=N)N [Maleate-NF1, N-(4,5-bis-methanesulfonyl-2-methyl-benzoyl)-guanidine] | – | – | – | – | – | – | – | – | > 170 | – | – | – | –
Cc1cc(S(C)(=O)=O)c(S(C)(=O)=O)cc1C(=O)NC(=N)N [Citrate-NF1, N-(4,5-bis-methanesulfonyl-2-methyl-benzoyl)-guanidine] | 2.056 | 4.13±0.02 mg/mL and 4.132 mg/mL | – | – | improved dissolution behavior | slightly hygroscopic | – | – | ~180 | ≤ 1.5 | no tendency to undergo hydrate formation | – | –
Cc1cc(S(C)(=O)=O)c(S(C)(=O)=O)cc1C(=O)NC(=N)N [Besylate-NF1, N-(4,5-bis-methanesulfonyl-2-methyl-benzoyl)-guanidine] | 4.059 | 5.57±0.02 mg/mL and 5.570 mg/mL | 5.57±0.02 mg/mL and 5.570 mg/mL | 3.87±0.02 mg/mL and 3.873 mg/mL | improved dissolution behavior | slightly hygroscopic | 1.0 | – | > 280 | – | – | – | –
Cc1cc(S(C)(=O)=O)c(S(C)(=O)=O)cc1C(=O)NC(=N)N [Sulfate-NF3, N-(4,5-bis-methanesulfonyl-2-methyl-benzoyl)-guanidine] | 2.590 | 3.70±0.02 mg/mL and 3.703 mg/mL | 4.65±0.02 mg/mL and 4.646 mg/mL | 4.70±0.02 mg/mL and 4.705 mg/mL | improved dissolution behavior | slightly hygroscopic | ≤ 0.5 | – | > 210 | – | – | – | –
Cc1cc(S(C)(=O)=O)c(S(C)(=O)=O)cc1C(=O)NC(=N)N [Fumarate-NF1, N-(4,5-bis-methanesulfonyl-2-methyl-benzoyl)-guanidine] | 2.606 | 4.22±0.02 mg/mL and 4.222 mg/mL | 4.34±0.02 mg/mL and 4.337 mg/mL | 4.36±0.02 mg/mL and 4.361 mg/mL | improved dissolution behavior | slightly hygroscopic | – | – | – | – | – | – | –
Cc1cc(S(C)(=O)=O)c(S(C)(=O)=O)cc1C(=O)NC(=N)N [HBr-NF1, N-(4,5-bis-methanesulfonyl-2-methyl-benzoyl)-guanidine] | – | – | – | – | – | non-hygroscopic | – | – | – | – | – | 4.3-4.4 wt % | –
Cc1cc(S(C)(=O)=O)c(S(C)(=O)=O)cc1C(=O)NC(=N)N [Phosphate-NF1, N-(4,5-bis-methanesulfonyl-2-methyl-benzoyl)-guanidine] | 3.373 | 5.92±0.02 mg/mL and 5.919 mg/mL | 6.35±0.02 mg/mL and 6.345 mg/mL | 6.35±0.02 mg/mL and 6.345 mg/mL | improved dissolution behavior | slightly hygroscopic | – | – | > 230 | ≤ 1.0 | no tendency to undergo hydrate formation | – | –
Cc1cc(S(C)(=O)=O)c(S(C)(=O)=O)cc1C(=O)NC(=N)N [Succinate-NF1, N-(4,5-bis-methanesulfonyl-2-methyl-benzoyl)-guanidine] | 1.105 | 3.26±0.02 mg/mL and 3.260 mg/mL | 5.10±0.02 mg/mL and 5.104 mg/mL | 5.03±0.02 mg/mL and 5.032 mg/mL | improved dissolution behavior | non-hygroscopic | ≤ 0.2 | – | > 200 | – | – | – | –
Cc1cc(S(C)(=O)=O)c(S(C)(=O)=O)cc1C(=O)NC(=N)N [Malate-NF1, N-(4,5-bis-methanesulfonyl-2-methyl-benzoyl)-guanidine] | 5.510 | 5.51±0.02 mg/mL and 5.510 mg/mL | 5.51±0.02 mg/mL and 5.510 mg/mL | 4.27±0.02 mg/mL and 4.275 mg/mL | improved dissolution behavior | hygroscopic | – | – | – | 7.5 | – | – | –
Cc1cc(S(C)(=O)=O)c(S(C)(=O)=O)cc1C(=O)NC(=N)N (racemic) [Tartrate-NF1, N-(4,5-bis-methanesulfonyl-2-methyl-benzoyl)-guanidine] | 5.165 | 5.17±0.02 mg/mL and 5.165 mg/mL | 5.17±0.02 mg/mL and 5.165 mg/mL | 5.17±0.02 mg/mL | improved dissolution behavior | slightly hygroscopic | – | – | – | ≤ 1.0 | – | – | –
Cc1cc(S(C)(=O)=O)c(S(C)(=O)=O)cc1C(=O)NC(=N)N [HCl-A1, N-(4,5-bis-methanesulfonyl-2-methyl-benzoyl)-guanidine] | 0.541 | 0.87±0.02 mg/mL and 0.866 mg/mL | 2.53±0.02 mg/mL and 2.535 mg/mL | 2.76±0.02 mg/mL and 2.765 mg/mL | – | – | – | – | – | – | – | – | –
Cc1cc(S(C)(=O)=O)c(S(C)(=O)=O)cc1C(=O)NC(=N)N [HCl-A2, N-(4,5-bis-methanesulfonyl-2-methyl-benzoyl)-guanidine] | 0.990 | 1.19±0.02 mg/mL and 1.193 mg/mL | 1.90±0.02 mg/mL and 1.897 mg/mL | 2.21±0.02 mg/mL and 2.213 mg/mL | – | non-hygroscopic | 0.1 | – | > 240 | – | – | – | –
Cc1cc(S(C)(=O)=O)c(S(C)(=O)=O)cc1C(=O)NC(=N)N.Cl.O [HCl-H1, N-(4,5-bismethanesulfonyl-2-methylbenzoyl)-guanidine hydrochloride hydrate, reference compound] | 0.494 | – | – | – | – | non-hygroscopic | – | – | – | – | – | – | ≤ 0.2
Cc1cc(S(C)(=O)=O)c(S(C)(=O)=O)cc1C(=O)NC(=N)N [Malonate-NF1, N-(4,5-bis-methanesulfonyl-2-methyl-benzoyl)-guanidine] | 3.527 | 5.340 mg/mL | 5.77±0.02 mg/mL and 5.770 mg/mL | 5.79±0.02 mg/mL and 5.790 mg/mL | improved dissolution behavior | slightly hygroscopic | ≤ 1.0 | – | > 190 | – | – | – | –
